The supplement of paper PMC7017272
± gives the standard deviation of the averaged measurements.

Key:
Settings in all cases: treatment time: 3 days
[1] = tested on: UT-SCC-24A; experiment: maximal % inhibition of viability relative to DMSO; higher = stronger effect
Procedure: (§1)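 HNSCC cell lines (500 cells/well, 384-well) were cultured on plastic, on top of (2D) or embedded (3D) in Matrigel or human leiomyoma matrix Myogel (500 ug/mL; Myogel 3D mixed with rat collagen I). Cells were treated for 3 days with 5 ten-fold concentrations of each drug, and viability was read by CellTiter-Glo. Viability was normalised to DMSO (0% inhibition) and 100 uM benzethonium chloride (100% inhibition) controls and fitted with the FIMM DSRT pipeline to give IC50 (nM), maximal % inhibition and the drug sensitivity score (DSS). Suffixes _1/_2/_3 on drug names are replicates.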

[2] = tested on: UT-SCC-106A; experiment: drug sensitivity score (DSS); higher = more sensitive; extreme values may be limits of the assay
Method in brief: (§2)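 Viability of HPV-negative HNSCC cell lines was measured by CellTiter-Glo 2.0 luminescence. Cells were seeded at 500 cells/well in 384-well plates on plastic, on Matrigel- or Myogel-coated wells (500 µg/mL), or embedded in Matrigel or Myogel plus rat collagen I, then given compounds at five 10-fold concentrations for 3 days, with signals normalised to vehicle (0.1% DMSO) and cell-killing control wells. Fitting of percent-inhibition dose–response curves in the FIMM pipeline yielded IC50, maximal inhibition and drug sensitivity score.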

[3] = tested on: UT-SCC-14; experiment: as above
Method in brief: as §2

[4] = tested on: UT-SCC-24B; experiment: as above
Method in brief: as §2

[5] = tested on: UT-SCC-28; experiment: as above
Method in brief: as §2

[6] = tested on: UT-SCC-40; experiment: as above
Method in brief: as §2

[7] = tested on: UT-SCC-42A; experiment: as above
Method in brief: as §2

[8] = tested on: UT-SCC-42B; experiment: as above
Method in brief: as §2

[9] = tested on: UT-SCC-44; experiment: as above
Method in brief: as §2

[10] = tested on: UT-SCC-73; experiment: as above
Method in brief: as §2

[11] = tested on: UT-SCC-81; experiment: as above
Method in brief: as §2

[12] = tested on: UT-SCC-8; experiment: as above
Method in brief: as §2

[13] = tested on: UT-SCC-28; experiment: relative IC50 (midpoint of the fitted curve; maximal inhibition may be below 50%); higher = less potent
Method in brief: as §2

[14] = tested on: UT-SCC-42A; experiment: as above
Method in brief: as §2

[15] = tested on: UT-SCC-81; experiment: as above
Method in brief: as §2

[16] = tested on: UT-SCC-24A; experiment: relative IC50 (midpoint of the fitted curve; maximal inhibition may be below 50%); higher = less potent
Procedure: as §1

[17] = culture condition: embedded in Matrigel
[18] = culture condition: embedded in Myogel + collagen I
[19] = culture condition: on top of Matrigel
[20] = culture condition: on top of Myogel
[21] = culture condition: plastic 2D (no matrix)

With Cn1cnc2c(F)c(Nc3ccc(Br)cc3F)c(C(=O)NOCCO)cc21 [Binimetinib] the “maximal % inhibition of viability” value [1, 17] was 79.6 ± 1.9%, the “maximal % inhibition of viability” value [1, 18] was 37 ± 7.2% and the “maximal % inhibition of viability” value [1, 19] was 72.5 ± 1.2%. For the same compound, the “maximal % inhibition of viability” value [1, 20] was 35.6 ± 4.6%, the “maximal % inhibition of viability” value [1, 21] was 68.3 ± 1.5% and the drug sensitivity score [2, 17] was 11.8 ± 0.81 DSS. It also gave a drug sensitivity score [2, 18] of 0.567 ± 0.9 DSS, a drug sensitivity score [2, 19] of 12.8 ± 2.5 DSS and a drug sensitivity score [2, 20] of 1.67 ± 0.47 DSS. For the same compound, the drug sensitivity score [2, 21] was 11.7 ± 0.51 DSS, the drug sensitivity score [3, 17] was 6 ± 4.4 DSS and the drug sensitivity score [3, 18] was 4.73 ± 3.5 DSS. For the same compound, the drug sensitivity score [3, 19] was 5.1 ± 3.6 DSS, the drug sensitivity score [3, 20] was 4.27 ± 4.4 DSS and the drug sensitivity score [3, 21] was 2.27 ± 2 DSS. For the same compound, the drug sensitivity score [4, 17] was 6.43 ± 1 DSS, the drug sensitivity score [4, 18] was 6.03 ± 2.4 DSS and the drug sensitivity score [4, 19] was 5.6 ± 0.53 DSS. The drug sensitivity score [4, 20] was 2.7 ± 0.61 DSS, the drug sensitivity score [4, 21] was 9.3 ± 1.2 DSS and the drug sensitivity score [5, 17] was 6.5 ± 2.1 DSS. For the same compound, the drug sensitivity score [5, 18] was 0 DSS, the drug sensitivity score [5, 19] was 4.43 ± 1.8 DSS and the drug sensitivity score [5, 21] was 2.87 ± 2.4 DSS. It also gave a drug sensitivity score [6, 17] of 16.3 ± 2.6 DSS, a drug sensitivity score [6, 18] of 10.8 ± 4.3 DSS and a drug sensitivity score [6, 19] of 11.7 ± 2.1 DSS. It also gave a drug sensitivity score [6, 20] of 5.87 ± 1.8 DSS, a drug sensitivity score [6, 21] of 7.63 ± 2 DSS and a drug sensitivity score [7, 17] of 11.2 ± 1.7 DSS. The drug sensitivity score [7, 18] was 5.2 ± 2.5 DSS, the drug sensitivity score [7, 19] was 12.8 ± 2.1 DSS and the drug sensitivity score [7, 20] was 5.1 ± 2.7 DSS. It also gave a drug sensitivity score [7, 21] of 7.97 ± 0.65 DSS, a drug sensitivity score [8, 17] of 16 ± 0.97 DSS and a drug sensitivity score [8, 19] of 7.13 ± 3.2 DSS. The drug sensitivity score [8, 20] was 1.77 ± 0.51 DSS, the drug sensitivity score [8, 21] was 3.47 ± 0.32 DSS and the drug sensitivity score [9, 17] was 13.9 ± 2.2 DSS. It also gave a drug sensitivity score [9, 18] of 3.57 ± 1 DSS, a drug sensitivity score [9, 19] of 11.4 ± 0.57 DSS and a drug sensitivity score [9, 20] of 5.07 ± 1.4 DSS. For the same compound, the drug sensitivity score [9, 21] was 7.77 ± 4.3 DSS, the drug sensitivity score [10, 17] was 14.6 ± 0.67 DSS and the drug sensitivity score [10, 18] was 9.93 ± 3.5 DSS. For the same compound, the drug sensitivity score [10, 19] was 14.3 ± 0.8 DSS, the drug sensitivity score [10, 20] was 8.03 ± 1.4 DSS and the drug sensitivity score [10, 21] was 12 ± 1 DSS. The drug sensitivity score [11, 17] was 20.4 ± 0.21 DSS, the drug sensitivity score [11, 18] was 0.933 ± 0.55 DSS and the drug sensitivity score [11, 19] was 11 ± 1.7 DSS. For the same compound, the drug sensitivity score [11, 20] was 3.7 ± 1.1 DSS, the drug sensitivity score [11, 21] was 4.4 ± 0.69 DSS and the drug sensitivity score [12, 17] was 5.73 ± 4.6 DSS. For the same compound, the drug sensitivity score [12, 18] was 1.97 ± 3.4 DSS, the drug sensitivity score [12, 19] was 3.73 ± 2.5 DSS and the drug sensitivity score [12, 20] was 4.67 ± 4.2 DSS. For the same compound, the drug sensitivity score [12, 21] was 3.83 ± 3.4 DSS, the “relative IC50” value [13, 18] was > 989 nM and the “relative IC50” value [13, 19] was 26.5 nM. For the same compound, the “relative IC50” value [14, 17] was 13.8 nM, the “relative IC50” value [14, 19] was 8.75 nM and the “relative IC50” value [14, 20] was 14.9 nM. The “relative IC50” value [14, 21] was 25.5 nM, the “relative IC50” value [15, 17] was 9.22 nM and the “relative IC50” value [15, 18] was 175 nM. The “relative IC50” value [15, 19] was 53.2 nM, the “relative IC50” value [15, 20] was 14.9 nM and the “relative IC50” value [15, 21] was 74.4 nM. For the same compound, the “relative IC50” value [16, 19] was 5.41 nM, the “relative IC50” value [16, 20] was 17.3 nM and the “relative IC50” value [16, 21] was 6.48 nM.
CO[C@H]1C[C@@H]2CC[C@@H](C)[C@@](O)(O2)C(=O)C(=O)N2CCCC[C@H]2C(=O)O[C@H]([C@H](C)C[C@@H]2CC[C@@H](O)[C@H](OC)C2)CC(=O)[C@H](C)/C=C(\C)[C@@H](O)[C@@H](OC)C(=O)[C@H](C)C[C@H](C)/C=C/C=C/C=C/1C [Sirolimus] was tested, and the “maximal % inhibition of viability” value [1, 17] was 69 ± 4.9%, the “maximal % inhibition of viability” value [1, 18] was 77.4 ± 8.1% and the “maximal % inhibition of viability” value [1, 19] was 71.57 ± 0.55%. The “maximal % inhibition of viability” value [1, 20] was 65.5 ± 2.4%, the “maximal % inhibition of viability” value [1, 21] was 67.9 ± 2.4% and the drug sensitivity score [2, 17] was 4.7 ± 4.3 DSS. It also gave a drug sensitivity score [2, 18] of 3.73 ± 3.3 DSS, a drug sensitivity score [2, 19] of 8.67 ± 3.8 DSS and a drug sensitivity score [2, 20] of 7.03 ± 3.8 DSS. For the same compound, the drug sensitivity score [2, 21] was 10 ± 3.3 DSS, the drug sensitivity score [3, 17] was 19.3 ± 2.1 DSS and the drug sensitivity score [3, 18] was 15.4 ± 2.7 DSS. The drug sensitivity score [3, 19] was 15.6 ± 3.3 DSS, the drug sensitivity score [3, 20] was 15.4 ± 3.1 DSS and the drug sensitivity score [3, 21] was 15.1 ± 3.8 DSS. The drug sensitivity score [4, 17] was 22.9 ± 0.36 DSS, the drug sensitivity score [4, 18] was 19.5 ± 4 DSS and the drug sensitivity score [4, 19] was 18.9 ± 4.8 DSS. For the same compound, the drug sensitivity score [4, 20] was 17.2 ± 3.4 DSS, the drug sensitivity score [4, 21] was 16.8 ± 4.1 DSS and the drug sensitivity score [5, 17] was 7.27 ± 5.1 DSS. It also gave a drug sensitivity score [5, 18] of 7.53 ± 7 DSS, a drug sensitivity score [5, 19] of 9.87 ± 0.93 DSS and a drug sensitivity score [5, 21] of 6.97 ± 1.6 DSS. It also gave a drug sensitivity score [6, 17] of 5.4 ± 4.9 DSS, a drug sensitivity score [6, 18] of 4.83 ± 4.2 DSS and a drug sensitivity score [6, 19] of 3.2 ± 5.5 DSS. For the same compound, the drug sensitivity score [6, 20] was 4.67 ± 4.1 DSS, the drug sensitivity score [6, 21] was 0 DSS and the drug sensitivity score [7, 17] was 10.6 ± 4.6 DSS. For the same compound, the drug sensitivity score [7, 18] was 9.5 ± 0.92 DSS, the drug sensitivity score [7, 19] was 12.9 ± 1.6 DSS and the drug sensitivity score [7, 20] was 12.3 ± 1.6 DSS. It also gave a drug sensitivity score [7, 21] of 11.2 ± 0.82 DSS, a drug sensitivity score [8, 17] of 3.47 ± 6 DSS and a drug sensitivity score [8, 19] of 3.07 ± 5.3 DSS. It also gave a drug sensitivity score [8, 20] of 0 DSS, a drug sensitivity score [8, 21] of 3.8 ± 3.4 DSS and a drug sensitivity score [9, 17] of 6.6 ± 5.8 DSS. For the same compound, the drug sensitivity score [9, 18] was 13.9 ± 2.7 DSS, the drug sensitivity score [9, 19] was 13.1 ± 0.99 DSS and the drug sensitivity score [9, 20] was 14.2 ± 3.2 DSS. For the same compound, the drug sensitivity score [9, 21] was 15 ± 1.4 DSS, the drug sensitivity score [10, 17] was 12.4 ± 4.3 DSS and the drug sensitivity score [10, 18] was 8.07 ± 1.6 DSS. For the same compound, the drug sensitivity score [10, 19] was 11.9 ± 5.2 DSS, the drug sensitivity score [10, 20] was 10.1 ± 0.81 DSS and the drug sensitivity score [10, 21] was 7.43 ± 0.31 DSS. The drug sensitivity score [11, 17] was 14.2 ± 4.6 DSS, the drug sensitivity score [11, 18] was 14.9 ± 2.7 DSS and the drug sensitivity score [11, 19] was 17.1 ± 1.8 DSS. It also gave a drug sensitivity score [11, 20] of 16.6 ± 2.1 DSS, a drug sensitivity score [11, 21] of 17.8 ± 1.2 DSS and a drug sensitivity score [12, 17] of 12.2 ± 11 DSS. It also gave a drug sensitivity score [12, 18] of 3.87 ± 6.7 DSS, a drug sensitivity score [12, 19] of 11.5 ± 10 DSS and a drug sensitivity score [12, 20] of 11.3 ± 9.8 DSS. For the same compound, the drug sensitivity score [12, 21] was 12.4 ± 11 DSS, the “relative IC50” value [13, 17] was 2.04 nM and the “relative IC50” value [13, 19] was 1.16 nM. The “relative IC50” value [13, 21] was 1.2 nM, the “relative IC50” value [14, 18] was 3.22 nM and the “relative IC50” value [14, 19] was 2.37 nM. The “relative IC50” value [14, 20] was 2.33 nM, the “relative IC50” value [14, 21] was 2.24 nM and the “relative IC50” value [15, 18] was 2.71 nM. The “relative IC50” value [15, 19] was 1.95 nM, the “relative IC50” value [15, 20] was 1.55 nM and the “relative IC50” value [15, 21] was 1.4 nM. For the same compound, the “relative IC50” value [16, 18] was 1.86 nM and the “relative IC50” value [16, 20] was 2.01 nM.
